Data as given in PubChem BioAssay (NCI).
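Protocol summary: plate cells (96-well), add compound at 5 concentrations, incubate 48 h, interpolate endpoints linearly. At the TGI there is no net growth.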

Columns and labels:
Assay in all cases: NCI tumour cell line growth inhibition, 48 h
ACHN renal = tested on: ACHN renal
HOP-62 NSCLC = tested on: HOP-62 NSCLC
MDA-MB-435 = tested on: MDA-MB-435
NCI-H23 lung = tested on: NCI-H23 lung
SK-MEL-28 melanoma = tested on: SK-MEL-28 melanoma
SNB-75 CNS = tested on: SNB-75 CNS
UO-31 renal = tested on: UO-31 renal
MCF7 breast = tested on: MCF7 breast
NCI-H226 lung = tested on: NCI-H226 lung
UACC-257 melanoma = tested on: UACC-257 melanoma
K-562 leukemia = tested on: K-562 leukemia
U251 CNS = tested on: U251 CNS
T-47D breast = tested on: T-47D breast
OVCAR-5 ovarian = tested on: OVCAR-5 ovarian
MOLT-4 leukemia = tested on: MOLT-4 leukemia
MDA-MB-231 breast = tested on: MDA-MB-231 breast
HL-60(TB) leukemia = tested on: HL-60(TB) leukemia
TK-10 renal = tested on: TK-10 renal
HOP-92 NSCLC = tested on: HOP-92 NSCLC
SK-MEL-5 melanoma = tested on: SK-MEL-5 melanoma

Row | SMILES | TGI (ACHN renal) [µM] | TGI (HOP-62 NSCLC) [µM] | TGI (MDA-MB-435) [µM] | TGI (NCI-H23 lung) [µM] | TGI (SK-MEL-28 melanoma) [µM] | TGI (SNB-75 CNS) [µM] | TGI (UO-31 renal) [µM] | TGI (MCF7 breast) [µM] | TGI (NCI-H226 lung) [µM] | TGI (UACC-257 melanoma) [µM] | TGI (K-562 leukemia) [µM] | TGI (U251 CNS) [µM] | TGI (T-47D breast) [µM] | TGI (OVCAR-5 ovarian) [µM] | TGI (MOLT-4 leukemia) [µM] | TGI (MDA-MB-231 breast) [µM] | TGI (HL-60(TB) leukemia) [µM] | TGI (TK-10 renal) [µM] | TGI (HOP-92 NSCLC) [µM] | TGI (SK-MEL-5 melanoma) [µM]
1 | O=C1c2ccccc2-c2c1c(-c1ccc([N+](=O)[O-])cc1)nc1ccc3ccccc3c21 | > 100 | > 100 | > 100 | > 100 | > 100 | > 100 | > 100 | > 100 | > 100 | > 100 | > 100 | > 100 | > 100 | > 100 | > 100 | > 100 |  |  |  | 
2 | O=P1(c2ccccc2)c2ccccc2CCc2ccccc21 |  | > 100 | > 100 | > 100 | > 100 | > 100 | > 100 | > 100 | > 100 | > 100 |  |  |  |  | > 100 | > 100 | > 100 | > 100 | > 100 | > 100
3 | CCC1(CCSC(=N)N)C(=O)NC(=O)NC1=O | > 100 | > 100 | > 100 | > 100 | > 100 |  | > 100 | > 100 | > 100 | > 100 | > 100 | > 100 |  | > 100 | > 100 | > 100 | > 100 | > 100 | > 100 | > 100
4 | CCOC(=O)c1cc2c(nc1N)-c1ncccc1CC2 | > 100 | > 100 |  | > 100 | > 100 | > 100 | > 100 |  | > 100 | > 100 | > 100 | > 100 |  | > 100 | > 100 |  | > 100 | > 100 | > 100 | > 100
5 | CC1(C)OC(C[C@]2(C#N)C[C@H](CCl)OC(C)(C)O2)C[C@@H](C[C@]2(C#N)C[C@H](CCl)OC(C)(C)O2)O1 (some centres not stated) | > 100 | > 100 |  | > 100 | > 100 | > 100 |  |  | > 100 | > 100 | > 100 | > 100 |  | > 100 | > 100 |  | > 100 | > 100 | > 100 | > 100
6 | CC(=O)OC(C)c1cc2c(s1)C(=O)c1scc(C(C)OC(C)=O)c1C2=O (configuration not stated) | 0.628 | 0.44 | 0.0815 | 0.398 | 0.378 | 0.332 | 0.451 | 0.605 | 4.04 | 0.463 | > 100 | 1.66 | 2.1 | 2.74 |  |  | > 100 | 1.83 | 4.58 | 0.208
7 | CCCCCC[C@H]1CC(=O)C2CCCC[C@@]23CC[C@H](CCl)N13 (some centres not stated) (tested in a mixture with another compound) | > 100 | > 100 | > 100 | > 100 | > 100 | 81.6 | > 100 | 96.9 |  | > 100 | > 100 | > 100 |  | > 100 |  | > 100 | 46.5 | > 100 | 79.6 | 50.7
8 | CC(Oc1ccc(OCC2CCCCC2)cc1)C(N)=O (configuration not stated) | > 100 |  |  | > 100 | > 100 | > 100 | > 100 |  | > 100 | > 100 | > 100 | > 100 |  |  | > 100 |  | > 100 | > 100 |  | > 100
9 | CCOC(=O)C1=C(C)OC(=O)[C@@]2(OC)C=C(Cl)[C@@]12C | > 100 | > 100 | > 100 | > 100 | > 100 | > 100 | > 100 | > 100 | > 100 | > 100 | > 100 | > 100 |  | > 100 | > 100 | > 100 | 91 | > 100 | > 100 | > 100
10 | CSC1=NC(C(N)=O)C(N)N1C (configuration not stated) | > 100 | > 100 | > 100 | > 100 | > 100 |  | > 100 |  | > 100 | > 100 | > 100 | > 100 | > 100 | > 100 | > 100 | > 100 | > 100 | > 100 | > 100 | > 100
11 | COCc1cc2c(cc1/C(=C/[N+](=O)[O-])CS(=O)(=O)c1ccccc1)OCO2 | > 100 | > 100 | > 100 | > 100 | > 100 | > 100 | > 100 | > 100 | > 100 | > 100 | > 100 | > 100 | > 100 | > 100 | > 100 |  | > 100 | > 100 | > 100 | > 100
12 | CCCCCCCCOC(CO)CO | > 100 | > 100 |  | > 100 | > 100 |  | > 100 |  | > 100 | > 100 | > 100 | > 100 |  | > 100 | > 100 |  | > 100 | > 100 | > 100 | > 100
13 | CN(C)c1nc2n(CCO)c(-c3ccccc3)c(-c3ccccc3)nc-2c(=O)n1 | > 100 | > 100 | > 100 | > 100 | > 100 | > 100 | > 100 |  | > 100 | > 100 | > 100 | > 100 | > 100 | > 100 | > 100 | > 100 |  | > 100 | > 100 | > 100
14 | CC(=O)C1=C(C)Cn2c(=O)c3ccccc3c(=O)n2C1 | > 100 | > 100 |  | > 100 | > 100 | > 100 | > 100 |  | > 100 | > 100 | > 100 | > 100 |  | > 100 | > 100 |  | > 100 | > 100 | > 100 | > 100
15 | CC(O)C(N=Cc1nc(-c2ccccc2)oc1O)C(=O)O (configuration not stated) | > 100 | > 100 |  | > 100 | > 100 | > 100 | > 100 |  | > 100 | > 100 | > 100 | > 100 |  | > 100 |  |  |  | > 100 | > 100 | > 100
16 | COc1ccc2c3c(n(Cc4ccccc4)c(=O)c2c1)-c1cc(OC)c(OC)cc1C3C (configuration not stated) | 43.9 | > 70 |  | > 100 | > 100 | 45.4 | > 100 |  | > 75.9 | > 100 | > 100 | 35.8 |  | > 100 | > 100 |  | > 100 | > 100 | 42.6 | 51.5
17 | COC(=O)[C@]12CSC[C@H]1C[C@H](c1ccccc1OC)N2 | > 100 | > 100 | > 100 | > 100 | > 100 | > 100 | > 100 | > 100 | > 100 | > 100 | > 100 | > 100 | > 100 | > 100 | > 100 | > 100 |  | > 100 |  | > 100
18 | O=C1CCCC/C1=C1\C(=O)Nc2cc(F)ccc21 | > 100 | > 100 |  | > 100 | > 100 | > 100 | > 100 |  | > 100 | > 100 | > 100 | > 100 |  | > 100 | > 100 |  | > 100 | > 100 | > 100 | > 100
19 | O=[As](O)(O)c1ccc(N=Nc2ccc([As](=O)(O)O)cc2)cc1 | > 100 | > 100 | > 100 | > 100 | > 100 |  | > 100 |  | > 100 | > 100 | > 100 | > 100 | > 100 | > 100 | > 100 | > 100 | > 100 | > 100 | > 100 | > 100
20 | O=C(O)c1ccc(-c2nc3ccc(Cl)cc3[nH]2)cc1 |  | > 100 |  |  |  | > 100 | > 100 | > 100 | > 100 |  | > 100 | > 100 | > 100 |  | > 100 | > 100 | > 100 |  | > 100 | > 100
21 | C=CCn1c(C23CC4CC(CC(C4)C2)C3)n[nH]c1=S | > 100 | > 100 | > 100 | > 100 | > 100 | > 100 | > 100 | > 100 | > 100 | > 100 | > 100 | > 100 | > 100 | > 100 | > 100 | > 100 | 53.9 | > 100 |  | 
22 | O=c1oc2ccccc2c(O)c1C1c2c(c3ccccc3oc2=O)Oc2c1c(=O)oc1ccccc21 | 62.9 | > 100 | 60 | 89.2 | 97.8 | > 100 | 35.6 |  | 64 | > 100 | > 100 | > 100 | > 100 |  | > 100 | 71.2 |  | > 100 | > 100 | 52.1
23 | Cc1n[nH]c(=O)n1/N=C/c1cccs1 | > 100 | > 100 | > 100 | > 100 | > 100 | > 100 | > 100 | > 100 | > 100 | > 100 | > 100 | > 100 | > 100 | > 100 |  | > 100 |  |  |  | 
24 | CC1(C)CC(=O)C2=C(C1)S/C(=C1/SC3=C(S1)C(=O)CC(C)(C)C3)S2 | > 251 | > 251 |  | > 251 | > 251 | > 251 | > 251 |  |  | > 251 | > 251 | > 251 |  |  | > 251 |  | > 251 | > 251 | > 251 | 
25 | COc1ccc(OC)c(C23CCCC(C2)N(C)CC3)c1 (configuration not stated) | 78.1 |  | 37.9 | > 100 |  |  | > 100 | 32.1 |  | > 100 | 43 | 27.6 | > 100 | > 100 | > 100 | > 100 |  | > 100 |  | 
26 | COc1cc(=O)n2c3ccccc3n(C)c2c1C#N | > 100 | > 100 | > 100 | > 100 |  | > 100 | > 100 | > 100 | > 100 | > 100 | > 100 | > 100 |  | > 100 | > 100 | > 100 | > 100 | > 100 | > 100 | > 100
27 | Cc1cccc(/C=C2\CCCc3ccccc3C2=O)c1 | 86.6 | 99.4 | 37 | 79.8 | 59 | > 100 | > 100 | 56.2 | 40.8 | 61.8 | 48.8 | 48.5 |  | 31.6 | 68.6 | 48 | 29 | > 100 | 58.5 | 
28 | CCCc1c[nH]c(-c2ccc(-c3cc(CCC)c(C=O)[nH]3)s2)c1 | 33.5 |  |  | 42.4 | 26.5 | 34.8 |  |  | 33.3 | 31.2 | 49.8 | 29.2 |  |  | 86.2 |  | 49.8 | 28.7 |  | 30.6
